Assay results published in ChEMBL document CHEMBL4725292 (J Med Chem, 2020).

Assays:
MV4-11 = assay: Antiproliferative activity against human MV4-11 cells after 72 hrs by cell titer glo assay; type: functional, cell-based; settings: MV4-11, 72 h
Blood [1] = assay: Inhibition of LPS-induced TNFalpha production in human whole blood preincubated for 30 mins followed by LPS addition and measured after overnight incubation by mesoscale assay; type: functional, tissue-based
HL-60 = assay: Antiproliferative activity against human HL-60 cells after 72 hrs by cell titer glo assay; type: functional, cell-based; settings: HL-60, 72 h
THP-1 = assay: Antiproliferative activity against human THP-1 cells after 72 hrs by cell titer glo assay; type: functional, cell-based; settings: THP-1, 72 h
Blood [2] = assay: Inhibition of LPS-induced MCP1 production in human whole blood preincubated for 30 mins followed by LPS addition and measured after overnight incubation by mesoscale assay; type: functional, tissue-based
Blood [3] = assay: Inhibition of LPS-induced IL6 production in human whole blood preincubated for 30 mins followed by LPS addition and measured after overnight incubation by mesoscale assay; type: functional, tissue-based
[4] = Permeability of the compound in pH 7.4 phosphate buffer measured after 3 hrs by artificial membrane permeability assay based HPLC analysis; type: ADME; settings: for Papp at 3 h: PAMPA, pH 7.4, read-out: permeability
[5] = Selectivity index, […] for His6-thr-tagged BRD4 BD1 (1 to 477 residues)/BD2 Y390A mutant (unknown origin) to pIC50 for LPS-induced MCP1 production in PBMC (unknown origin)
[6] = Lipophilicity, logD of the compound at pH 7.4 by chromatographic method; type: physicochemical; settings: buffer
[7] = biological target: Bromodomain-containing protein 4 (Homo sapiens, UniProt O60885, Y97A); assay: Displacement of Alexa Fluor 647 labelled ligand from His6-tagged BRD4 BD2 (1 to 477 residues)/BD1 Y97A mutant (unknown origin) after 30 mins by TR-FRET assay
[8] = Inhibition of LPS-induced MCP1 production in PBMC (unknown origin); type: functional, tissue-based
[9] = biological target: Bromodomain-containing protein 4 (Homo sapiens, UniProt O60885, Y390A); assay: Displacement of Alexa Fluor 647 labelled ligand from His6-thr-tagged BRD4 BD1 (1 to 477 residues)/BD2 Y390A mutant (unknown origin) after 30 mins by TR-FRET assay
[10] = test system: Bromodomain-containing protein 4 (Homo sapiens), O60885 [UNDEFINED MUTATION]; assay: Selectivity index, […] for His6-thr-tagged BRD4 BD1 (1 to 477 residues)/BD2 Y390A mutant (unknown origin) to pIC50 for His6-tagged BRD4 BD2 (1 to 477 residues)/BD1 Y97A mutant (unknown origin)
[11] = biological target: T1, ATPase family AAA domain-containing protein 2 (Homo sapiens, UniProt Q6PL18); assay: Inhibition of ATAD2 (unknown origin) by TR-FRET assay
T1 sequence (Q6PL18 whole entry): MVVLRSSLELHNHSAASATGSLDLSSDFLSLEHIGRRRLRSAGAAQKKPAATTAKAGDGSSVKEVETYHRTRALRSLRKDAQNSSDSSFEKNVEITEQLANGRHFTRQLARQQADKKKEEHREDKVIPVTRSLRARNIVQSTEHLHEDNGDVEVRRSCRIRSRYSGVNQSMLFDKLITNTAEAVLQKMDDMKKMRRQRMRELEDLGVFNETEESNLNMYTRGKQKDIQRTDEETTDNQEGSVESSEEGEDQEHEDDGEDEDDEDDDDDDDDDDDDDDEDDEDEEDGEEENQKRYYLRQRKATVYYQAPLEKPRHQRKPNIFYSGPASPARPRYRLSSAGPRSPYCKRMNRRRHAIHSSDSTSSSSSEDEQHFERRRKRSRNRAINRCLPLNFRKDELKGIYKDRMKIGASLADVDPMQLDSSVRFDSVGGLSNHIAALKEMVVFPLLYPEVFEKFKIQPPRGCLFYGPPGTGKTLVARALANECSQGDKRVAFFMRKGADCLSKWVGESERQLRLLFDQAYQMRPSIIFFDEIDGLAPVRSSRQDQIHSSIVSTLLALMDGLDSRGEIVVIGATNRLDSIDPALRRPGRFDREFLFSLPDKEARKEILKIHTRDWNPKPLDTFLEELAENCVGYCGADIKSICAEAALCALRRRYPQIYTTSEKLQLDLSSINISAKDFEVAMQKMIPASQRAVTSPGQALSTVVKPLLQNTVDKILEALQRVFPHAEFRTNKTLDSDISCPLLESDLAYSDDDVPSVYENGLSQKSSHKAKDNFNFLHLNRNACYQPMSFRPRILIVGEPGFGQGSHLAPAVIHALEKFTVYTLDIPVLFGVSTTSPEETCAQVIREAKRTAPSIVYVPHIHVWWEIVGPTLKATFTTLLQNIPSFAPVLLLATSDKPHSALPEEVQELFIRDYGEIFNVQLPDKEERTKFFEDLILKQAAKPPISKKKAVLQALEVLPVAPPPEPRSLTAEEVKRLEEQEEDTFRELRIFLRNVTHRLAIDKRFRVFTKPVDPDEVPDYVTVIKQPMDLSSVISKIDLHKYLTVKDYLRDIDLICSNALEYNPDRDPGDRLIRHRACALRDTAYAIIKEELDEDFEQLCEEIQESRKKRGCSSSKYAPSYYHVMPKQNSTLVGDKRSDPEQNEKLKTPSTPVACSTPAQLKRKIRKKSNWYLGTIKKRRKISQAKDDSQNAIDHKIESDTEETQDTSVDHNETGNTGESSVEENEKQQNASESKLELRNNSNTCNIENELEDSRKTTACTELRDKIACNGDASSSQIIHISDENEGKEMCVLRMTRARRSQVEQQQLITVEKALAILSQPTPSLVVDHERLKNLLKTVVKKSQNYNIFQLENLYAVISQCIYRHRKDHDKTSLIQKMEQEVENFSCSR

IC50 (MV4-11) [nM] | IC50 (Blood [1]) [nM] | IC50 (HL-60) [nM] | IC50 (THP-1) [nM] | IC50 (Blood [2]) [nM] | IC50 (Blood [3]) [nM] | permeability ([4]; artificial membrane, pH 7.4, 3 h, 3 h) [×10⁻⁶ cm/s] | chromatographic logD [6] | IC50 [7] [nM] | IC50 [8] [nM] | IC50 [9] [nM] | Papp at 3 h [4] [×10⁻⁶ cm/s] | Selectivity Index [10] | IC50 [11] [nM] | SMILES | Selectivity Index [5]
127 | 380 | 195 | 134 | 300 | 1030 | – | – | – | – | – | – | – | – | COc1cc2c(cc1-c1c(C)noc1C)ncc1[nH]c(=O)n([C@H](C)c3ccccn3)c12 | –
– | – | – | – | – | – | 1.9 | 3.12 | 12600 | 200 | 20 | – | – | – | Cc1cc2c(-c3ccco3)cnc(N[C@@H]3CCNC[C@H]3C(=O)NC3CCCCC3)c2[nH]c1=O | 10
– | – | – | – | – | – | – | 2.03 | > 50100 | – | 794 | < 0.3 | > 60 | > 39800 | Cc1cc2ccnc(N[C@@H]3CCNC[C@H]3C(=O)NC3CCCCC3)c2[nH]c1=O (racemic) | –
– | – | – | – | – | – | – | 3.66 | 15800 | – | 316 | < 1 | 50 | – | Cc1cc2c(-c3ccco3)ccc(N[C@@H]3CCNC[C@H]3C(=O)NC3CCCCC3)c2[nH]c1=O (racemic) | –
